Read-outs that look alike come from different tables or passages of the source.
Molecular target: μ-opioid receptor (Homo sapiens (Human), UniProt P35372)
Assay: μ-opioid receptor [35S]GTPγS functional assay, HEK-293 or CHO cells
Assay type: biochemical
Conditions: HEK-293 or CHO cells; for EC50: read-out: GTPγS μ EC50; for Emax: relative to DAMGO
Protocol: [^35S]GTPγS functional assays were conducted using freshly thawed μ-receptor membranes prepared in-house from a cell line expressing recombinant opioid receptor in a HEK-293, CHO or U-2 OS cell background, or purchased from a commercial source (Perkin Elmer, Shelton, Conn.; or DiscovRx, Fremont, Calif.). Assay reactions were prepared by sequentially adding the following reagents to binding buffer (100 mM NaCl, 10 mM MgCl2, 20 mM HEPES, pH 7.4) on ice (final concentrations indicated): membrane protein (0.026 mg/mL), saponin ([…]), GDP ([…]) and [^35S]GTPγS (0.20 nM; Perkin Elmer, Shelton, Conn.). The prepared membrane solution (190 μl/well) was transferred to 96-shallow well polypropylene plates containing 10 μl of 20× concentrated stock solutions of the agonist [D-Ala^2, N-methyl-Phe^4 Gly-ol^5]-enkephalin (DAMGO) prepared in dimethyl sulfoxide (DMSO). Plates were incubated for 30 min at about 25° C. with shaking. Reactions were terminated by rapid filtration onto 96-well Unifilter GF/B filter plates (Perkin Elmer, Shelton, Conn.) using a 96-well tissue harvester (Perkin Elmer, Shelton, Conn.) followed by three filtration washes with 200 μl of ice-cold wash buffer (10 mM NaH2PO4, 10 mM Na2HPO4, pH 7.4). Filter plates were subsequently dried at 50° C. for 2-3 hr. BetaScint scintillation cocktail (Perkin Elmer, Shelton, Conn.) was added (50 μl/well) and plates were counted using a Packard Top-Count for 1 min/well. Data were analyzed using the sigmoidal dose-response curve fitting functions in GraphPad PRISM v. 3.0, or an in-house function for non-linear, sigmoidal dose-response curve-fitting.
μ GTP EC50 is the concentration of a compound providing 50% of the maximal response for the compound at a μ-opioid receptor.
μ GTP Emax (%) is the maximal effect elicited by a compound relative to the effect elicited by DAMGO, a standard p agonist. Generally, the μ GTP Emax (%) value measures the efficacy of a compound to treat or prevent pain or other Conditions.
In TABLE 4, activity response of certain Compounds of the Invention to the μ- and κ-opioid receptors was determined as described above for functional assays using HEK-293 or CHO cells.

| Structure (SMILES) | EC50 [µM] | Emax [%] | EC50 (bound given in uM) [µM] |
| --- | --- | --- | --- |
| CN1CC[C@@]2(C)c3cc(O)ccc3C[C@@H]1[C@@H]2N(C)CC1CCN(C(=O)C(C)(C)C)CC1 [Compound 52, 1-(4-((((2R,6S,11R)-8-hydroxy-3,6-dimethyl-1,2,3,4,5,6-hexahydro-2,6-methanobenzo[d]azocin-11-yl)(methyl)amino)methyl)piperidin-1-yl)-2,2-dimethylpropan-1-one] | 0.00122 ± 0.0002 | 31.3 ± 0.88 | – |
| CN1CC[C@@]2(C)c3cc(O)ccc3C[C@@H]1[C@@H]2N(C)CC1CCN(S(C)(=O)=O)CC1 [Compound 54, (2R,6S,11R)-3,6-dimethyl-11-(methyl((1-(methylsulfonyl)piperidin-4-yl)methyl)amino)-1,2,3,4,5,6-hexahydro-2,6-methanobenzo[d]azocin-8-ol] | 0.00544 ± 0.00235 | 74 ± 3.15 | – |
| CCS(=O)(=O)N1CCC(CN(C)[C@H]2[C@H]3Cc4ccc(O)cc4[C@]2(C)CCN3C)CC1 [Compound 56, (2R,6S,11R)-11-(((1-(ethylsulfonyl)piperidin-4-yl)methyl)(methyl)amino)-3,6-dimethyl-1,2,3,4,5,6-hexahydro-2,6-methanobenzo[d]azocin-8-ol] | 0.0967 ± 0.00987 | 62 ± 1.53 | – |
| CN1CC[C@@]2(C)c3cc(O)ccc3C[C@@H]1[C@@H]2N(C)CC1CCN(S(=O)(=O)C2CC2)CC1 [Compound 57, (2R,6S,11R)-11-(((1-(cyclopropylsulfonyl)piperidin-4-yl)methyl)(methyl)amino)-3,6-dimethyl-1,2,3,4,5,6-hexahydro-2,6-methanobenzo[d]azocin-8-ol] | 0.0905 ± 0.0181 | 43 ± 1.53 | – |
| CN1CC[C@@]2(C)c3cc(O)ccc3C[C@@H]1[C@H]2N(CCc1ccc(F)cc1)CC(=O)O [Compound 72, N-(4-fluorophenethyl)-N-((2R,6S,11S)-8-hydroxy-3,6-dimethyl-1,2,3,4,5,6-hexahydro-2,6-methanobenzo[d]azocin-11-yl)glycine] | 0.338 ± 0.0609 | 101 ± 2.91 | – |
| CN1CC[C@@]2(C)c3cc(O)ccc3C[C@@H]1[C@@H]2N(CCc1ccc(F)cc1)CC(=O)O [Compound 73, N-(4-fluorophenethyl)-N-((2R,6S,11R)-8-hydroxy-3,6-dimethyl-1,2,3,4,5,6-hexahydro-2,6-methanobenzo[d]azocin-11-yl)glycine] | 0.0572 ± 0.0127 | 68.8 ± 1.77 | – |
| CN1CC[C@@]2(C)c3cc(O)ccc3C[C@@H]1[C@@H]2N(CCc1ccc(F)cc1)CC(N)=O [Compound 74, 2-((4-fluorophenethyl)-((2R,6S,11R)-8-hydroxy-3,6-dimethyl-1,2,3,4,5,6-hexahydro-2,6-methanobenzo[d]azocin-11-yl)amino)acetamide] | 0.00112 ± 0.00017 | 83.2 ± 3.47 | – |
| CN1CC[C@@]2(C)c3cc(O)ccc3C[C@@H]1[C@H]2N(CCO)CCc1ccc(F)cc1 [Compound 77, (2R,6S,11S)-11-((4-fluorophenethyl)(2-hydroxyethyl)amino)-3,6-dimethyl-1,2,3,4,5,6-hexahydro-2,6-methanobenzo[d]azocin-8-ol] | 0.00796 ± 0.00069 | 87 ± 1.73 | – |
| CN1CC[C@@]2(C)c3cc(O)ccc3C[C@@H]1[C@@H]2N(C)C(=O)Nc1nc2ccc(F)cc2s1 [Compound 81, 3-(6-fluorobenzo[d]thiazol-2-yl)-1-((2R,6S,11R)-8-hydroxy-3,6-dimethyl-1,2,3,4,5,6-hexahydro-2,6-methanobenzo[d]azocin-11-yl)-1-methylurea] | – | -1 | > 20 |
| CN1CC[C@@]2(C)c3cc(O)ccc3C[C@@H]1[C@H]2N(C)C(=O)Nc1nc2cc(F)ccc2s1 [Compound 82, 3-(5-fluorobenzo[d]thiazol-2-yl)-1-((2R,6S,11S)-8-hydroxy-3,6-dimethyl-1,2,3,4,5,6-hexahydro-2,6-methanobenzo[d]azocin-11-yl)-1-methylurea] | – | 1 | > 20 |
| CCN(C(=O)Nc1ccc(C#N)cc1)[C@H]1[C@H]2Cc3ccc(O)cc3[C@]1(C)CCN2C [Compound 91, 3-(4-cyanophenyl)-1-ethyl-1-((2R,6S,11R)-8-hydroxy-3,6-dimethyl-1,2,3,4,5,6-hexahydro-2,6-methanobenzo[d]azocin-11-yl)urea] | 0.0463 ± 0.0041 | 75.3 ± 2.19 | – |
| CCCN(C(=O)Nc1ccc(C#N)cc1)[C@H]1[C@H]2Cc3ccc(O)cc3[C@]1(C)CCN2C [Compound 92, 3-(4-cyanophenyl)-1-((2R,6S,11R)-8-hydroxy-3,6-dimethyl-1,2,3,4,5,6-hexahydro-2,6-methanobenzo[d]azocin-11-yl)-1-propylurea] | 0.0964 ± 0.00352 | 43.8 ± 1.03 | – |
| CCN(C(=O)Nc1ccc(C#N)cc1)[C@@H]1[C@H]2Cc3ccc(O)cc3[C@]1(C)CCN2C [Compound 93, 3-(4-cyanophenyl)-1-ethyl-1-((2R,6S,11 S)-8-hydroxy-3,6-dimethyl-1,2,3,4,5,6-hexahydro-2,6-methanobenzo[d]azocin-11-yl)urea] | 2.29 ± 0.404 | 32 ± 2.48 | – |
| CN1CC[C@@]2(C)c3cc(O)ccc3C[C@@H]1[C@@H]2N(C)CC1CCN(C(=O)NC(C)(C)C)CC1 [Compound 95, N-(tert-butyl)-4-((((2R,6S,11R)-8-hydroxy-3,6-dimethyl-1,2,3,4,5,6-hexahydro-2,6-methanobenzo[d]azocin-11-yl)(methyl)amino)methyl)piperidine-1-carboxamide] | 0.008 ± 0.00164 | 17.7 ± 2.6 | – |
| CCN(CCc1ccc(S(C)(=O)=O)cc1)[C@H]1[C@H]2Cc3ccc(O)cc3[C@]1(C)CCN2C [Compound 98, (2R,6S,11R)-11-(ethyl(4-(methylsulfonyl)phenethyl)amino)-3,6-dimethyl-1,2,3,4,5,6-hexahydro-2,6-methanobenzo[d]azocin-8-ol] | 0.00064 ± 8.2e-05 | 44.6 ± 0.6 | – |
| CN1CC[C@@]2(C)c3cc(O)ccc3C[C@@H]1[C@@H]2N(C)S(=O)(=O)Cc1ccccc1 [Compound 100, N-((2R,6S,11R)-8-hydroxy-3,6-dimethyl-1,2,3,4,5,6-hexahydro-2,6-methanobenzo[d]azocin-11-yl)-N-methyl-1-phenylmethane-sulfonamide] | 8.95 ± 2.04 | 25 ± 1.53 | – |
| CN1CC[C@]2(C)c3cc(O)ccc3CC1[C@@H]2C(=O)N1CCCCC1 [Compound 106, ((6S,11R)-8-hydroxy-3,6-dimethyl-1,2,3,4,5,6-hexahydro-2,6-methanobenzo[d]azocin-11-yl)(piperidin-1-yl)methanone] | 4.09 ± 0.334 | 49 ± 1.73 | – |
| CN1CC[C@@]2(C)c3cc(O)ccc3C[C@@H]1[C@@H]2N(C)C(=O)Nc1nc2ccccc2[nH]1 [Compound 107, 3-(1H-benzo[d]imidazol-2-yl)-1-((2R,6S,11R)-8-hydroxy-3,6-dimethyl-1,2,3,4,5,6-hexahydro-2,6-methanobenzo[d]azocin-11-yl)-1-methylurea] | 0.00681 ± 0.00286 | 30.6 ± 1.51 | – |
| CN1CC[C@@]2(C)c3cc(O)ccc3C[C@@H]1[C@@H]2NCc1ccccc1 [Compound 108, (2R,6S,11R)-11-(benzylamino)-3,6-dimethyl-1,2,3,4,5,6-hexahydro-2,6-methanobenzo[d]azocin-8-ol] | 11.7 ± 3.29 | 17.1 ± 0.67 | – |
| CN1CC[C@@]2(C)c3cc(O)ccc3C[C@@H]1[C@H]2NCCCc1ccccc1 [Compound 109, (2R,6S,11S)-3,6-dimethyl-11-((3-phenylpropyl)amino)-1,2,3,4,5,6-hexahydro-2,6-methanobenzo-[d]azocin-8-ol] | 0.649 ± 0.114 | 59.6 ± 2.5 | – |
| CCn1c(NC(=O)N(C)[C@H]2[C@H]3Cc4ccc(OC)cc4[C@]2(C)CCN3C)nc2ccccc21 [Compound 110, 3-(1-Ethyl-1H-benzo[d]imidazol-2-yl)-1-((2R,6S,11R)-8-methoxy-3,6-dimethyl-1,2,3,4,5,6-hexahydro-2,6-methanobenzo[d]azocin-11-yl)-1-methylurea] | 0.851 ± 0.161 | 89.2 ± 6.05 | – |
| COc1ccc2c(c1)[C@]1(C)CCN(C)[C@H](C2)[C@@H]1N(C)C(=O)Nc1nc2ccccc2[nH]1 [Compound 111, 3-(1H-benzo[d]imidazol-2-yl)-1-((2R,6S,11R)-8-methoxy-3,6-dimethyl-1,2,3,4,5,6-hexahydro-2,6-methanobenzo[d]azocin-11-yl)-1-methylurea] | 0.79 ± 0.0985 | 67.4 ± 3.48 | – |
| CCn1c(NC(=O)N(C)[C@H]2[C@H]3Cc4ccc(O)cc4[C@]2(C)CCN3C)nc2ccccc21 [Compound 112, 3-(1-ethyl-1H-benzo[d]imidazol-2-yl)-1-((2R,6S,11R)-8-hydroxy-3,6-dimethyl-1,2,3,4,5,6-hexahydro-2,6-methanobenzo[d]azocin-11-yl)-1-methylurea] | 0.0141 ± 0.00052 | 84.2 ± 0.94 | – |

Source: patent US9975854B2, “Benzomorphan analogs and use thereof” (Purdue Pharma L.P., priority 2014, dated 2018)
